In PMC10139140, “Synthesis of Novel 2-(Cyclopentylamino)thiazol-4(5H)-one Derivatives with Potential Anticancer, Antioxidant, and 11β-HSD Inhibitory Activities” (International Journal of Molecular Sciences, 2023):

Target: T1, 11β-HSD1 (Homo sapiens, UniProt P28845)
T1 construct: Human liver microsomes were used as a source of 11β-HSD1 enzyme; tissue XenoTech Lot No. 1410013; host or cells: pooled human liver microsomes, mixed gender
Experiment: Inhibition of 11β-HSD1 (cortisone to cortisol, human liver microsomes, cortisol ELISA)
Format: biochemical
Conditions: 10 µM, 2.5 h, 37 °C
Procedure: The resulting solution with a final volume of 100 µL was incubated for 2.5 h at 37 °C. To stop the reaction, 10 µL of a 100 µM solution of 18β-glycyrrhetinic acid in PBS was added. The level of cortisol obtained in the reaction was measured by commercially available ELISA kit.
As a control, analogous tests without the addition of inhibitors were used. Half the inhibitory concentration (causing 50% reduction of cortisol or cortisone) was read from the chart.

T1 sequence (P28845 whole entry): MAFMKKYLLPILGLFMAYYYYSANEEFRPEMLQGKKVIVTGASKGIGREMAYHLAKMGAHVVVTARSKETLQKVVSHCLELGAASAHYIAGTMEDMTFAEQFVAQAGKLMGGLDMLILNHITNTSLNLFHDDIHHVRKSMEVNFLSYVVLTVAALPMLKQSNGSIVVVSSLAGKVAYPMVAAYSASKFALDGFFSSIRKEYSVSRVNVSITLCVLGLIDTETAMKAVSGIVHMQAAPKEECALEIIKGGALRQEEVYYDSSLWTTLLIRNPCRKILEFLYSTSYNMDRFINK

**Q.** For `CC1(C)[C@@H](OC(=O)CCC(=O)O)CC[C@]2(C)[C@H]3C(=O)C=C4[C@@H]5C[C@@](C)(C(=O)O)CC[C@]5(C)CC[C@@]4(C)[C@]3(C)CC[C@@H]12` [carbenoxolone, reference compound], which inhibition at 10 µM is on record?
**A.** Its inhibition at 10 µM is 90.4 ± 1.86%.
